Results as given in patent US8048916B2, “Ester compound and use thereof” (Sumitomo Chemical Company, Limited, priority 2007, dated 2011).

These compounds were tested on houseflies (assay: Test Example 2: knock-down test on houseflies in a 70 cm cubic chamber (KT50)). Conditions: 0.00625% (w/v), 0.7 ml sprayed into 70 cm cubic chamber, knock-down counted until 10 minutes.
Assay type: in vivo, housefly
Description: Each of the compositions of the compounds (1) and (2) of the present invention obtained by Formulation Example 7 was diluted with mixed liquid of dichloromethane/deodorized kerosine=1/9 (w/w) so that the effective ingredient concentration became 0.00625% (w/v) to prepare a test solution.
Ten houseflies were released in a cubic chamber having a side of 70 cm to spray 0.7 ml of the above-mentioned oil-based preparation into the chamber through a small window on the side face of the chamber at a spray pressure of 0.9 kg/cm^2 with a spray gun. Then, the number of houseflies knocked down was counted with time until 10 minutes later (two repetitions each). The effect was evaluated with 4 grades of ⊙ to × as described below by means of a KT50 value calculated from the obtained results.
As a control test, the similar tests were performed by using as comparative reference compounds 2,3,5,6-tetrafluoro-4-methoxymethylbenzyl (1R,3S)-3-((E)-2-cyano-2-fluorovinyl)-2,2-dimethylcyclopropanecarboxylate
For `COCc1c(F)c(F)c(COC(=O)[C@@H]2C(/C=C(\Cl)C#N)C2(C)C)c(F)c1F` (stereo in doubt) [compound (1), 2,3,5,6-tetrafluoro-4-methoxymethylbenzyl (1R,3S)-3-((Z)-2-chloro-2-cyanovinyl)-2,2-dimethylcyclopropanecarboxylate], the “Efficacy (grade by KT50 value)” value was “◯ (KT50 value is 2 minutes or more and less than 3 minutes)”.
`COCc1c(F)c(F)c(COC(=O)[C@@H]2C(C=C(F)C#N)C2(C)C)c(F)c1F` (stereo in doubt) [control compound (A), 2,3,5,6-tetrafluoro-4-methoxymethylbenzyl (1R,3S)-3-((E)-2-cyano-2-fluorovinyl)-2,2-dimethylcyclopropanecarboxylate] was tested, and the “Efficacy (grade by KT50 value)” value was “X (KT50 value is 4 minutes or more)”.
`COCc1c(F)c(F)c(COC(=O)[C@@H]2C(C=C(F)C#N)C2(C)C)c(F)c1F` (stereo in doubt) [control compound (B), 2,3,5,6-tetrafluoro-4-methoxymethylbenzyl (1R,3S)-3-((Z)-2-cyano-2-fluorovinyl)-2,2-dimethylcyclopropanecarboxylate] was tested, and the “Efficacy (grade by KT50 value)” value was “Δ (KT50 value is 3 minutes or more and less than 4 minutes)”.
For `COCc1c(F)c(F)c(COC(=O)[C@@H]2C(/C=C(/Cl)C#N)C2(C)C)c(F)c1F` (stereo in doubt) [compound (2), 2,3,5,6-tetrafluoro-4-methoxymethylbenzyl (1R,3S)-3-((E)-2-chloro-2-cyanovinyl)-2,2-dimethylcyclopropanecarboxylate], the “Efficacy (grade by KT50 value)” value was “⊙ (KT50 value is less than 2 minutes)”.
